In US20250179103A1, “6-OXODECAHYDROPYRROLO[1,2-A][1,5]DIAZOCINE AND 6-OXODECAHYDRO-4H-PYRROLO[2,1-D][1,5]THIAZOCINE DERIVATIVES AS STAT3 AND STAT6 MODULATORS FOR THE TREATMENT OF CANCER AND INFLAMMATORY CONDITIONS” (Recludix Pharma, Inc., priority 2022, published 2025):

Each compound was assayed on pY641-STAT6 in Peripheral Blood Mononuclear Cells (PBMC) (assay: MSD-pSTAT-PBMC Assay (pSTAT6, IL-4 stimulated)). Details: Homo sapiens, compound 3 hrs, then 1 ng/mL IL-4 for 10 min.
Format: cell-based, Human
Text: Cryopreserved Peripheral Blood Mononuclear Cells (PBMC) are from AllCells. Recombinant Human IL-4 and IL-6 are from Peprotech. Mouse monoclonal anti-STAT3 antibody, rabbit monoclonal anti-pY705-STAT3 antibody, rabbit monoclonal Anti-pY641-STAT6 antibody, and lysis buffer are from Cell Signaling Technology (CST). Mouse monoclonal anti-STAT6 antibody is from BioLegend. Assay plates, blocker, and anti-rabbit secondary antibody are from Meso Scale Discovery (MSD).
Cryopreserved PBMCs were thawed out and allowed to recover overnight in IMDM+10% heat-inactivated FBS prior to plating 50,000 (STAT3) or 25,000 (STAT6) cells per well in 96-well U-bottom tissue culture plates. Cells were treated with compound for 3 hrs, then stimulated with 10 ng/mL IL-6 (STAT3) or 1 ng/mL IL-4 (STAT6) for 10 min. Cells were then spun down and washed with ice-cold PBS prior to lysing the cell pellet with 1× lysis buffer (CST) with 1×HALT protease and phosphatase inhibitor cocktail (Thermo). Lysates were transferred to and incubated overnight at 4° C. with shaking in QuickPlex 96-well high bind assay plates (MSD) pre-coated overnight with 30 μL per well of 0.6 μg/mL mouse monoclonal anti-STAT3 antibody (STAT3) or 2 μg/mL mouse monoclonal anti-STAT6 antibody (STAT6) in 1×PBS, and pre-blocked for 1 hour with 3% Blocker-A (MSD). Captured protein in the assay plates were then washed and probed with 25 μL per well of 0.25 μg/ml rabbit monoclonal anti-pY705-STAT3 antibody (STAT3) or […] rabbit monoclonal Anti-pY641-STAT6 antibody (STAT6) in 1% Blocker-A for 1 hour at room temperature with shaking, then washed and probed with 25 ul per well of 1 ug/ml Sulfo-TAG Labeled Goat Anti-Rabbit Antibody (MSD) in 1% Blocker-A for 1 hour at room temperature with shaking. Assay plates were then washed and 150 μL of 1× Read Buffer-T (MSD) was added to each well prior to reading on an SQ120 MSD Plate Reader. Assay signal from each sample was subtracted by the signal from unstimulated control wells and normalized to DMSO control wells. IC50 values were calculated using Graph Pad Prism Dose-Response Nonlinear Regression with variable slope. For both pSTAT3 and pSTAT6 A=≤100 nM; B=>100-1000 nM; C=>1000-3000 nM; and D=>3 μM.

CCCOC(=O)[C@H](C)NP(=O)(Oc1ccccc1)C(F)c1ccc2ccc(C(=O)N[C@H]3CN(C(=O)c4noc5ccc(C)cc45)CC[C@H]4CC[C@@H](C(=O)N5CCOC[C@H]5c5ccccc5)N4C3=O)cc2c1 (stereo partly drawn) [Compound 413, propyl ((fluoro(7-(((5S,8S,10aR)-3-(5-methylbenzo [d]isoxazole-3-carbonyl)-6-oxo-8-((R)-3-phenyl-morpholine-4-carbonyl)decahydro-pyrrolo [1,2-a][1,5]diazocin-5-yl)carbamoyl)naphthalen-2-yl)methyl) (phenoxy)phosphoryl)-L-alaninate] and CCCOC(=O)[C@H](C)NP(=O)(Oc1ccccc1)C(F)c1ccc2ccc(C(=O)N[C@H]3CN(C(=O)c4noc5ccc(C)cc45)CC[C@H]4CC[C@@H](C(=O)N5CCOC(Cc6ccccc6)C5)N4C3=O)cc2c1 (stereo partly drawn) [Compound 415, propyl (((7-(((5S,8S,10aR)-8-(2-benzyl-morpholine-4-carbonyl)-3-(5-methylbenzo [d]isoxazole-3-carbonyl)-6-oxodeca-hydropyrrolo [1,2-a][1,5]diazocin-5-yl)carbamoyl)naphthalen-2-yl)fluoromethyl) (phenoxy)phosphoryl)-L-alaninate] cannot be ordered by IC50: ≤ 100 nM for the first, 100 to 1000 nM for the second.

CCCOC(=O)[C@H](C)NP(=O)(Oc1ccccc1)C(F)c1ccc2ccc(C(=O)N[C@H]3CN(C(=O)c4noc5ccc(C)cc45)CC[C@H]4CC[C@@H](C(=O)N5C[C@@H]6C[C@H]5CO6)N4C3=O)cc2c1 (stereo partly drawn) [Compound 414, propyl (((7-(((5S,8S,10aR)-8-((1S,4S)-2-oxa-5-azabicyclo [2.2.1]heptane-5-carbonyl)-3-(5-methylbenzo [d]isoxazole-3-carbonyl)-6-oxodeca-hydropyrrolo [1,2-a][1,5]diazocin-5-yl)carbamoyl)naphthalen-2-yl)fluoromethyl) (phenoxy)phosphoryl)-L-alaninate] and CCCOC(=O)[C@H](C)NP(=O)(Oc1ccccc1)[C@@H](F)c1ccc2ccc(C(=O)N[C@H]3CN(C(=O)c4noc5ccc(C)cc45)CC[C@H]4CC[C@@H](C(=O)N5CC6CCC(C5)O6)N4C3=O)cc2c1 (stereo partly drawn) [Compound 416, propyl (((1R)-(7-(((5S,8S,10aR)-8-(8-oxa-3-azabicyclo [3.2.1]octane-3-carbonyl)-3-(5-methylbenzo [d]isoxazole-3-carbonyl)-6-oxodeca-hydropyrrolo [1,2-a][1,5]diazocin-5-yl)carbamoyl)naphthalen-2-yl)fluoromethyl) (phenoxy)phosphoryl)-L-alaninate] cannot be ordered by IC50: ≤ 100 nM for the first, ≤ 100 nM for the second.

CCCOC(=O)[C@H](C)NP(=O)(Oc1ccccc1)[C@H](F)c1ccc2ccc(C(=O)N[C@H]3CN(C(=O)c4noc5ccc(C)cc45)CC[C@H]4CC[C@@H](C(=O)N5C[C@@H](c6ccn(C)c(=O)c6)CC56CC6)N4C3=O)cc2c1 (stereo partly drawn) [Compound 417, propyl (((S)-fluoro(7-(((5S,8S,10a R)-8-((R)-6-(1-methyl-2-oxo-1,2-dihydro-pyridin-4-yl)-4-azaspiro[2.4]heptane-4-carbonyl)-3-(5-methylbenzo [d]isoxazole-3-carbonyl)-6-oxodeca-hydropyrrolo [1,2-a][1,5]diazocin-5-yl)carbamoyl)naphthalen-2-yl)methyl) (phenoxy)phosphoryl)-L-alaninate] and CCCOC(=O)[C@H](C)NP(=O)(Oc1ccccc1)[C@H](F)c1ccc2ccc(C(=O)N[C@H]3CN(C(=O)c4noc5ccc(C)cc45)CC[C@H]4CC[C@@H](C(=O)N5C[C@H](c6ccn(C)c(=O)c6)CC56CC6)N4C3=O)cc2c1 (stereo partly drawn) [Compound 419, propyl (((S)-fluoro(7-(((5S,8S,10aR)-8-((S)-6-(1-methyl-2-oxo-1,2-dihydropyridin-4-yl)-4-azaspiro[2.4]heptane-4-carbonyl)-3-(5-methylbenzo [d]isoxazole-3-carbonyl)-6-oxodeca-hydropyrrolo [1,2-a][1,5]diazocin-5-yl)carbamoyl)naphthalen-2-yl)methyl) (phenoxy)phosphoryl)-L-alaninate] cannot be ordered by IC50: ≤ 100 nM for the first, ≤ 100 nM for the second.

CCCOC(=O)[C@H](C)NP(=O)(Oc1ccccc1)[C@@H](F)c1ccc2ccc(C(=O)N[C@H]3CN(C(=O)c4noc5ccc(C)cc45)CC[C@H]4CC[C@@H](C(=O)N5C(=O)N(c6cccnc6)C(=O)C56CC6)N4C3=O)cc2c1 (stereo partly drawn) [Compound 418, propyl (((R)-(7-(((5S,8S,10aR)-8-(5,7-dioxo-6-(pyridin-3-yl)-4,6-diazaspiro [2.4]heptane-4-carbonyl)-3-(5-methylbenzo [d]isoxazole-3-carbonyl)-6-oxodeca-hydropyrrolo [1,2a][1,5]diazocin-5-yl)carbamoyl)naphthalen-2-yl)fluoromethyl) (phenoxy)phosphoryl)-L-alaninate] and CCCOC(=O)[C@H](C)NP(=O)(Oc1ccccc1)[C@@H](F)c1ccc2ccc(C(=O)N[C@H]3CN(C(=O)c4noc5ccc(C)cc45)CC[C@H]4CC[C@@H](C(=O)N5C[C@@H](c6ccn(C)c(=O)c6)CC56CC6)N4C3=O)cc2c1 (stereo partly drawn) [Compound 420, propyl (((R)-fluoro(7-(((5S,8S,10aR)-8-((R)-6-(1-methyl-2-oxo-1,2-dihydropyridin-4-yl)-4-azaspiro[2.4]heptane-4-carbonyl)-3-(5-methylbenzo [d]isoxazole-3-carbonyl)-6-oxodeca-hydropyrrolo [1,2-a][1,5]diazocin-5-yl)carbamoyl)naphthalen-2-yl)methyl) (phenoxy)phosphoryl)-L-alaninate] cannot be ordered by IC50: ≤ 100 nM for the first, ≤ 100 nM for the second.

First: CCCOC(=O)[C@H](C)NP(=O)(Oc1ccccc1)[C@@H](F)c1ccc2ccc(C(=O)N[C@H]3CN(C(=O)c4noc5ccc(C)cc45)CC[C@H]4CC[C@@H](C(=O)N5C[C@H](c6ccn(C)c(=O)c6)CC56CC6)N4C3=O)cc2c1 (stereo partly drawn) [Compound 421, propyl (((R)-fluoro(7-(((5S,8S,10aR)-8-((S)-6-(1-methyl-2-oxo-1,2-dihydropyridin-4-yl)-4-azaspiro [2.4]heptane-4-carbonyl)-3-(5-methylbenzo [d]isoxazole-3-carbonyl)-6-oxodeca-hydropyrrolo [1,2-a] [1,5]diazocin-5-yl)carbamoyl)naphthalen-2-yl)methyl) (phenoxy)phosphoryl)-L-alaninate]
Second: CCCOC(=O)[C@H](C)NP(=O)(Oc1ccccc1)C(F)c1ccc2ccc(C(=O)N[C@H]3CN(C(=O)c4ncn5ccccc45)CC[C@H]4CC[C@@H](C(=O)N5CCOCC5)N4C3=O)cc2c1 (stereo partly drawn) [Compound 423, propyl ((fluoro(7-(((5S,8S,10aR)-3-(imidazo[1,5-a]pyridine-1-carbonyl)-8-(morpholine-4-carbonyl)-6-oxodecahydro-pyrrolo [1,2-a][1,5]diazocin-5-yl)carbamoyl)naphthalen-2-yl)methyl) (phenoxy)phosphoryl)-L-alaninate]
The IC50 of the first is lower: ≤ 100 nM for the first, > 3000 nM for the second.

CCCOC(=O)[C@H](C)NP(=O)(Oc1ccccc1)C(F)c1ccc2ccc(C(=O)N[C@H]3CCN(C(=O)c4cc(C)cc(Cl)c4)C[C@H]4CC[C@@H](C(=O)N5CCOCC5)N4C3=O)cc2c1 (stereo partly drawn) [Compound 422, propyl (((7-(((5S,8S,10aR)-2-(3-chloro-5-methylbenzoyl)-8-(morpholine-4-carbonyl)-6-oxodeca-hydropyrrolo [1,2-a][1,4]diazocin-5-yl)carbamoyl)naphthalen-2-yl)fluoromethyl) (phenoxy)phosphoryl)-L-alaninate] gave an IC50 of 1000 to 3000 nM.
